Values quoted from earlier work, collected in patent publication US8759282B2, “Water-soluble films comprising low-viscosity alginates” (Uppsalagruppen Medical AB, priority 2005, dated 2014).
Like-named read-outs stand apart in the source and are kept apart here.

What was measured:
[1] = not given; remark: listed apart in the source

SMILES | Solubility in water | pKa [1] | Solubility in water (listed as ibuprofen)
CC(=O)Oc1ccccc1C(=O)O [Substance 2, 2-Acetoxibensoesyra] | 1 g/100 g of water |  | 
CC(=O)Nc1ccc(O)cc1 [Substance 1, N-Acetyl-p-aminophenol] | only slightly soluble in water |  | 
CN1CCC[C@H]1c1cccnc1 [Substance 4, (S)-3-(1-Methyl-2-pyrrolidinyl)pyridine] | liquid miscible with water | 8.5 | 
CC(C)Cc1ccc(C(C)C(=O)O)cc1 (stereo not drawn) [Substance 3, p-Isobutylhydratropic acid] | slightly soluble in water |  | only slightly soluble in water
